Where “and” joins values, the source holds several entries; their conditions need not be identical. Equal entries are not always repeated.
How the values were obtained:
[1] = test system: MRGPRX4-expressing HEK293 cells (Gαq signaling pathway); experiment: Pharmacological blocker experiments: phospho-drug evoked calcium response in MRGPRX4-expressing HEK293 cells after inhibitor preincubation
Experimental: Various HEK293 cell lines were plated on PDL-coated glass coverslips. […] For pharmacological blocker experiments, cells were pre-incubated with signaling pathway inhibitors, including YM254890, U73122, and thapsigargin, for 30 min before imaging.
Traces of [Ca2+] from MRGPRX4-expressing HEK293 cells stimulated with (A) 1 µM
U73122 (middle), or 10 µM sarco/endoplasmic reticulum Ca2+-ATPase inhibitor thapsigargin
(right) for 30 min before imaging.
independent experiments, each performed in quadruplicate.

mock [2] = experiment: Calcium mobilization assay (FLIPR), mock-transfected control cells (Fig. 3E and 3F); format: cell-based
mock [3] = experiment: Calcium mobilization assay (FLIPR), mock-transfected cells (Fig. 3E and 3F); format: cell-based

For `O=C1NC(c2ccccc2)(c2ccccc2)C(=O)N1COP(=O)(O)O` [Fosphenytoin], the “calcium response trace, fig. S2B” value ([1]; Time 0.8024 s, + Vehicle) was 1, the “calcium response trace, fig. S2B” value ([1]; Time 0.8024 s, + YM254890) was 1 and the “calcium response trace, fig. S2B” value ([1]; Time 3.296 s, + YM254890) was 1.0086. The “calcium response trace, fig. S2B” value ([1]; Time 5.8096 s, + YM254890) was 1.014, the “calcium response trace, fig. S2B” value ([1]; Time 8.3136 s, + YM254890) was 1.012 and the “calcium response trace, fig. S2B” value ([1]; Time 10.8264 s, + YM254890) was 1.017. For the same molecule, the “calcium response trace, fig. S2B” value ([1]; Time 13.3408 s, + YM254890) was 1.0091, the “calcium response trace, fig. S2B” value ([1]; Time 15.8536 s, + YM254890) was 1.017 and the “calcium response trace, fig. S2B” value ([1]; Time 18.3672 s, + YM254890) was 1.0038. The “calcium response trace, fig. S2B” value ([1]; Time 20.8808 s, + YM254890) was 1.022 and 1.026, the “calcium response trace, fig. S2B” value ([1]; Time 23.3848 s, + YM254890) was 1.023 and 1.0316 and the “calcium response trace, fig. S2B” value ([1]; Time 25.8984 s, + YM254890) was 1.028 and 1.035. The “calcium response trace, fig. S2B” value ([1]; Time 28.392 s, + YM254890) was 1.036 and 1.04, the “calcium response trace, fig. S2B” value ([1]; Time 30.8952 s, + YM254890) was 1.032 and 1.039 and the “calcium response trace, fig. S2B” value ([1]; Time 33.3896 s, + YM254890) was 1.039 and 1.042. The “calcium response trace, fig. S2B” value ([1]; Time 35.8728 s, + YM254890) was 1.035 and 1.045, the “calcium response trace, fig. S2B” value ([1]; Time 38.3656 s, + YM254890) was 1.038 and 1.049 and the “calcium response trace, fig. S2B” value ([1]; Time 40.86 s, + YM254890) was 1.038 and 1.045. The “calcium response trace, fig. S2B” value ([1]; Time 43.3632 s, + YM254890) was 1.041 and 1.036, the “calcium response trace, fig. S2B” value ([1]; Time 45.8664 s, + YM254890) was 1.037 and 1.041 and the “calcium response trace, fig. S2B” value ([1]; Time 48.38 s, + YM254890) was 1.051 and 1.044. For the same molecule, the “calcium response trace, fig. S2B” value ([1]; Time 50.8936 s, + YM254890) was 1.041 and 1.044, the “calcium response trace, fig. S2B” value ([1]; Time 53.4072 s, + YM254890) was 1.038 and 1.0407 and the “calcium response trace, fig. S2B” value ([1]; Time 55.9112 s, + YM254890) was 1.034 and 1.044. The “calcium response trace, fig. S2B” value ([1]; Time 58.4248 s, + YM254890) was 1.04 and 1.039, the “calcium response trace, fig. S2B” value ([1]; Time 60.9288 s, + YM254890) was 1.042 and 1.044 and the “calcium response trace, fig. S2B” value ([1]; Time 63.444 s, + YM254890) was 1.04 and 1.035. The “calcium response trace, fig. S2B” value ([1]; Time 65.9256 s, + YM254890) was 1.037, the “calcium response trace, fig. S2B” value ([1]; Time 68.4192 s, + YM254890) was 1.036 and the “calcium response trace, fig. S2B” value ([1]; Time 70.9024 s, + YM254890) was 1.036. For the same molecule, the “calcium response trace, fig. S2B” value ([1]; Time 73.3864 s, + YM254890) was 1.029, the “calcium response trace, fig. S2B” value ([1]; Time 75.8896 s, + YM254890) was 1.034 and the “calcium response trace, fig. S2B” value ([1]; Time 78.3936 s, + YM254890) was 1.032. The “calcium response trace, fig. S2B” value ([1]; Time 80.9064 s, + YM254890) was 1.03, the “calcium response trace, fig. S2B” value ([1]; Time 83.4104 s, + YM254890) was 1.032 and the “calcium response trace, fig. S2B” value ([1]; Time 85.9136 s, + YM254890) was 1.031. For the same molecule, the “calcium response trace, fig. S2B” value ([1]; Time 88.4176 s, + YM254890) was 1.027, the “calcium response trace, fig. S2B” value ([1]; Time 90.9336 s, + YM254890) was 1.025 and the “calcium response trace, fig. S2B” value ([1]; Time 93.4144 s, + YM254890) was 1.031. For the same molecule, the “calcium response trace, fig. S2B” value ([1]; Time 95.908 s, + YM254890) was 1.026, the “calcium response trace, fig. S2B” value ([1]; Time 98.4016 s, + YM254890) was 1.025 and the “calcium response trace, fig. S2B” value ([1]; Time 100.895 s, + YM254890) was 1.029. For the same molecule, the “calcium response trace, fig. S2B” value ([1]; Time 103.389 s, + YM254890) was 1.027, the “calcium response trace, fig. S2B” value ([1]; Time 105.892 s, + YM254890) was 1.0264 and the “calcium response trace, fig. S2B” value ([1]; Time 108.406 s, + YM254890) was 1.031. The “calcium response trace, fig. S2B” value ([1]; Time 110.9 s, + YM254890) was 1.026, the “calcium response trace, fig. S2B” value ([1]; Time 113.413 s, + YM254890) was 1.02 and the “calcium response trace, fig. S2B” value ([1]; Time 115.917 s, + YM254890) was 1.023. For the same molecule, the “calcium response trace, fig. S2B” value ([1]; Time 118.43 s, + YM254890) was 1.023, the “calcium response trace, fig. S2B” value ([1]; Time 120.934 s, + YM254890) was 1.021 and the “calcium response trace, fig. S2B” value ([1]; Time 123.45 s, + YM254890) was 1.02. For the same molecule, the “calcium response trace, fig. S2B” value ([1]; Time 125.93 s, + YM254890) was 1.014, the “calcium response trace, fig. S2B” value ([1]; Time 128.414 s, + YM254890) was 1.021 and the “calcium response trace, fig. S2B” value ([1]; Time 130.908 s, + YM254890) was 1.026. The “calcium response trace, fig. S2B” value ([1]; Time 133.402 s, + YM254890) was 1.02, the “calcium response trace, fig. S2B” value ([1]; Time 135.905 s, + YM254890) was 1.011 and the “calcium response trace, fig. S2B” value ([1]; Time 138.41 s, + YM254890) was 1.019. The “calcium response trace, fig. S2B” value ([1]; Time 140.942 s, + YM254890) was 1.016, the “calcium response trace, fig. S2B” value ([1]; Time 143.446 s, + YM254890) was 1.018 and the “calcium response trace, fig. S2B” value ([1]; Time 145.949 s, + YM254890) was 1.014. The “calcium response trace, fig. S2B” value ([1]; Time 148.465 s, + YM254890) was 1.02, the “calcium response trace, fig. S2B” value ([1]; Time 150.996 s, + YM254890) was 1.016 and the “calcium response trace, fig. S2B” value ([1]; Time 153.49 s, + YM254890) was 1.011. The “calcium response trace, fig. S2B” value ([1]; Time 156.003 s, + YM254890) was 1.016, the “calcium response trace, fig. S2B” value ([1]; Time 158.497 s, + YM254890) was 1.014 and the “calcium response trace, fig. S2B” value ([1]; Time 161 s, + YM254890) was 1.008. For the same molecule, the “calcium response trace, fig. S2B” value ([1]; Time 163.494 s, + YM254890) was 1.02, the “calcium response trace, fig. S2B” value ([1]; Time 165.987 s, + YM254890) was 1.0117 and the “calcium response trace, fig. S2B” value ([1]; Time 168.481 s, + YM254890) was 1.018. For the same molecule, the “calcium response trace, fig. S2B” value ([1]; Time 170.974 s, + YM254890) was 1.011, the “calcium response trace, fig. S2B” value ([1]; Time 173.488 s, + YM254890) was 1.015 and the “calcium response trace, fig. S2B” value ([1]; Time 175.991 s, + YM254890) was 1.0057. The “calcium response trace, fig. S2B” value ([1]; Time 178.505 s, + YM254890) was 1.009, the “calcium response trace, fig. S2B” value ([1]; Time 181.018 s, + YM254890) was 1.011 and the “calcium response trace, fig. S2B” value ([1]; Time 183.532 s, + YM254890) was 1.014. For the same molecule, the “calcium response trace, fig. S2B” value ([1]; Time 186.036 s, + YM254890) was 1.016, the “calcium response trace, fig. S2B” value ([1]; Time 188.549 s, + YM254890) was 1.014 and the “calcium response trace, fig. S2B” value ([1]; Time 191.053 s, + YM254890) was 1.017. For the same molecule, the “calcium response trace, fig. S2B” value ([1]; Time 193.556 s, + YM254890) was 1.013, the “calcium response trace, fig. S2B” value ([1]; Time 196.05 s, + YM254890) was 1.011 and the “calcium response trace, fig. S2B” value ([1]; Time 198.533 s, + YM254890) was 1.011. The “Calcium mobilization response, dose-response replicate data (Fig. 3E and 3F)” value (“Calcium mobilization response … (Fig. 3E and 3F)” for short) (mock [2]; concentration 188 pM) was 2.751 and 6.052 and -2.532, the “Calcium mobilization response … (Fig. 3E and 3F)” value (mock [2]; concentration 565 pM) was 4.071 and -5.503 and 12.3245 and the “Calcium mobilization response … (Fig. 3E and 3F)” value (mock [2]; concentration 1.69e-9 M) was 4.071 and 3.081 and -1.212. The “Calcium mobilization response … (Fig. 3E and 3F)” value (mock [2]; concentration 5.08e-9 M) was 3.411 and -2.202, the “Calcium mobilization response … (Fig. 3E and 3F)” value (mock [2]; concentration 1.52e-8 M) was -1.542 and -1.212 and -3.853 and the “Calcium mobilization response … (Fig. 3E and 3F)” value (mock [2]; concentration 4.57e-8 M) was -2.532 and -6.494 and 5.722. For the same molecule, the “Calcium mobilization response … (Fig. 3E and 3F)” value (mock [2]; concentration 1.37e-7 M) was -8.474 and 2.091 and 3.411, the “Calcium mobilization response … (Fig. 3E and 3F)” value (mock [2]; concentration 4.12e-7 M) was -2.202 and -3.522 and -0.2212 and the “Calcium mobilization response … (Fig. 3E and 3F)” value (mock [2]; concentration 1.23e-6 M) was -8.474 and -1.212 and -3.1923. For the same molecule, the “Calcium mobilization response … (Fig. 3E and 3F)” value (mock [2]; concentration 3.7e-6 M) was -6.824 and 3.081 and 0.4401, the “Calcium mobilization response … (Fig. 3E and 3F)” value (mock [2]; concentration 1.11e-5 M) was -13.7563 and -1.212 and 1.1003 and the “Calcium mobilization response … (Fig. 3E and 3F)” value (mock [2]; concentration 3.33e-5 M) was -14.4165 and -16.3972 and -5.173. For the same molecule, the “Calcium mobilization response … (Fig. 3E and 3F)” value (mock [2]; concentration 0.0001 M) was -29.6022 and -24.6503 and -24.9805.

`CC(C)c1cccc(C(C)C)c1OCOP(=O)(O)O` [Fospropofol] was tested, and the “calcium mobilization response (Fig. 3E and 3F dose-response)” value (mock [3]; 5.08e-9 M) was 10.7608 and 18.8313 and 12.7088, the “calcium mobilization response (Fig. 3E and 3F dose-response)” value (mock [3]; 1.37e-7 M) was 17.7181 and 25.7886 and 28.015 and the “calcium mobilization response (Fig. 3E and 3F dose-response)” value (mock [3]; 4.12e-7 M) was 16.3266 and 13.822 and 21.6142. For the same molecule, the “calcium mobilization response (Fig. 3E and 3F dose-response)” value (mock [3]; 1.23e-6 M) was 32.4677 and 38.8684 and 39.425, the “calcium mobilization response (Fig. 3E and 3F dose-response)” value (mock [3]; 3.7e-6 M) was 22.4491 and 40.2599 and 25.232 and the “calcium mobilization response (Fig. 3E and 3F dose-response)” value (mock [3]; 1.11e-5 M) was 30.7979 and 29.963 and 39.7033. For the same molecule, the “calcium mobilization response (Fig. 3E and 3F dose-response)” value (mock [3]; 3.33e-5 M) was 34.1374 and 32.1894 and 41.0947 and the “calcium mobilization response (Fig. 3E and 3F dose-response)” value (mock [3]; 0.0001 M) was 28.2933 and 31.0762 and 40.2599.

Source: paper PMC11645656, “MRGPRX4 mediates phospho-drug associated pruritus in a humanized mouse model” (Science translational medicine, 2024)
